Tests used:
[1] = tested on: HT-29; assay: Cytotoxicity against human HT-29 cells assessed as inhibition of cell proliferation incubated for 48 hrs by MTT assay; type: functional, cell-based; details: HT-29, 48 h
[2] = tested on: RKO; assay: Cytotoxicity against human RKO cells assessed as inhibition of cell proliferation incubated for 48 hrs by MTT assay; type: functional, cell-based
[3] = tested on: NCI-H1299; assay: Cytotoxicity against human NCI-H1299 cells assessed as inhibition of cell proliferation incubated for 48 hrs by MTT assay; type: functional, cell-based; details: NCI-H1299, 48 h
[4] = tested on: PC-9; assay: Cytotoxicity against human PC-9 cells assessed as inhibition of cell proliferation incubated for 48 hrs by MTT assay; type: functional, cell-based; details: PC-9, 48 h
[5] = tested on: BT-549; assay: Cytotoxicity against human BT-549 cells assessed as inhibition of cell proliferation incubated for 48 hrs by MTT assay; type: functional, cell-based; details: BT-549, 48 h
[6] = tested on: BT-549; assay: Potency index, ratio of cisplatin IC50 to test compound IC50 for cytotoxicity against human BT-549 cells; type: functional
[7] = Cytotoxicity against human HMLE cells assessed as inhibition of cell proliferation incubated for 48 hrs by MTT assay; type: toxicity, cell-based
[8] = Selectivity ratio of IC50 for cytotoxicity against human HMLE cells to IC50 for cytotoxicity against human BT-549 cells; type: toxicity, cell-based; details: HMLE cells and BT-549 cells, read-out: Ratio IC50
[9] = tested on: BT-549; assay: Induction of cell cycle arrest in human BT-549 cells assessed as accumulation at G0/G1 phase at 5 uM incubated for 24 hrs by propidium iodide staining based flow cytometry (reference value: 22.97%); type: functional
[10] = tested on: BT-549; assay: Induction of cell cycle arrest in human BT-549 cells assessed as accumulation at S phase at 5 uM incubated for 24 hrs by propidium iodide staining based flow cytometry (reference value: 50.87%); type: functional
[11] = tested on: BT-549; assay: Induction of cell cycle arrest in human BT-549 cells assessed as accumulation at G2/M phase at 5 uM incubated for 24 hrs by propidium iodide staining based flow cytometry (reference value: 22.59%); type: functional

CC[C@H](C)[C@H]1NC(=O)[C@@H](CC(C)C)NC(=O)[C@@H](CC(C)C)N(C)C(=O)[C@@H]2CCCN2C(=O)[C@H](CC(C)C)NC(=O)[C@H](Cc2ccccc2)OC(=O)[C@@H]2CCCN2C1=O
IC50 [1]: 2500 nM | IC50 [2]: 9500 nM | IC50 [3]: 2500 nM | IC50 [4]: 2500 nM | IC50 [5]: 2500 nM | Ratio IC50 [6]: 3.4 | IC50 at 48 h [7]: 7300 nM | selectivity ratio [8]: 3 | Activity [9]: 41.84% | Activity [10]: 32.49% | Activity [11]: 18.34%

— ChEMBL document CHEMBL5120814, “Molecular Networking-Based Screening Led to the Discovery of a Cyclic Heptadepsipeptide from an Endolichenic Xylaria sp” (J Nat Prod, 2022)
